Measurements from ChEMBL document CHEMBL1671859, “bla(IMP-4) in different genetic contexts in Enterobacteriaceae isolates from Australia” (2008).

What was measured:
Assay type in all cases: functional
Citrobacter amalonaticus [1] = experiment: Antibacterial activity against Citrobacter amalonaticus isolate Ca38009 harboring IncL/M plasmid and blaIMP-4-qacG2-aacA4-catB3 array by Etest method
Klebsiella pneumoniae [2] = experiment: Antibacterial activity against Klebsiella pneumoniae isolate Kp211 harboring IncA/C plasmid and blaIMP-4-qacG2-aacA4-catB3 array by Etest method
Klebsiella pneumoniae [3] = experiment: Antibacterial activity against Klebsiella pneumoniae isolate Kp204 harboring IncA/C plasmid and blaIMP-4-qacG2-aacA4-catB3 array by Etest method
Acinetobacter = experiment: Antibacterial activity against Acinetobacter isolate A74510 harboring blaIMP-4-qacG2-aacA4-catB3 array by Etest method
Morganella morganii [4] = experiment: Antibacterial activity against Morganella morganii Mm38009 transconjugant harboring IncL/M plasmid and blaIMP-4-qacG2-aacA4-catB3 array by Etest method
Klebsiella pneumoniae [5] = experiment: Antibacterial activity against Klebsiella pneumoniae isolate Kp266 harboring IncA/C plasmid and blaIMP-4-qacG2-aacA4-catB3 array by Etest method
Klebsiella oxytoca [6] = experiment: Antibacterial activity against Klebsiella oxytoca isolate Ko0426 harboring IncL/M plasmid and blaIMP-4-qacG2-aacA4-catB3 array by Etest method
Serratia marcescens [7] = experiment: Antibacterial activity against Serratia marcescens isolate Sm265 harboring IncA/C plasmid and blaIMP-4-qacG2-aacA4-catB3 array by Etest method
Citrobacter amalonaticus [8] = experiment: Antibacterial activity against Citrobacter amalonaticus isolate Ca3927 harboring IncL/M plasmid and blaIMP-4-qacG2-aacA4-catB3 array by Etest method
Klebsiella oxytoca [9] = experiment: Antibacterial activity against Klebsiella oxytoca Ko238 transconjugant harboring IncA/C plasmid and blaIMP-4-qacG2-aacA4-catB3 array by Etest method
Morganella morganii [10] = experiment: Antibacterial activity against Morganella morganii Mm1229 transconjugant harboring IncL/M plasmid and blaIMP-4-qacG2-aacA4-catB3 array by Etest method
Klebsiella pneumoniae [11] = experiment: Antibacterial activity against Klebsiella pneumoniae Kp38045 transconjugant harboring IncL/M plasmid and blaIMP-4-qacG2-aacA4-catB3 array by Etest method
Enterobacter cloacae [12] = experiment: Antibacterial activity against Enterobacter cloacae El1573 transconjugant harboring IncL/M plasmid and blaIMP-4-qacG2-aacA4-catB3 array by Etest method
Serratia marcescens [13] = experiment: Antibacterial activity against Serratia marcescens isolate Sm2723 harboring IncL/M plasmid and blaIMP-4-qacG2-aacA4-catB3 array by Etest method
Klebsiella pneumoniae [14] = experiment: Antibacterial activity against Klebsiella pneumoniae isolate Kp1239 harboring IncL/M plasmid and blaIMP-4-qacG2-aacA4-catB3 array by Etest method
Klebsiella oxytoca [15] = experiment: Antibacterial activity against Klebsiella oxytoca Ko1156 transconjugant harboring IncL/M plasmid and blaIMP-4-qacG2-aacA4-catB3 array by Etest method
Klebsiella pneumoniae [16] = experiment: Antibacterial activity against Klebsiella pneumoniae isolate Kp2730 harboring IncL/M plasmid and blaIMP-4-qacG2-aacA4-catB3 and dfrA12-orfF-aadA2 arrays by Etest method
Klebsiella oxytoca [17] = experiment: Antibacterial activity against Klebsiella oxytoca isolate Ko238 harboring IncA/C plasmid and blaIMP-4-qacG2-aacA4-catB3 array by Etest method
Klebsiella pneumoniae [18] = experiment: Antibacterial activity against Klebsiella pneumoniae isolate Kp7564 harboring IncL/M plasmid and blaIMP-4-qacG2-aacA4-catB3 array by Etest method
Enterobacter cloacae [19] = experiment: Antibacterial activity against Enterobacter cloacae isolate El3518 harboring IncL/M plasmid and blaIMP-4-qacG2-aacA4-catB3 array by Etest method
Klebsiella pneumoniae [20] = experiment: Antibacterial activity against Klebsiella pneumoniae isolate Kp149 harboring IncA/C plasmid and blaIMP-4-qacG2-aacA4-catB3 array by Etest method
Escherichia coli [21] = experiment: Antibacterial activity against Escherichia coli isolate Ec158 harboring IncA/C plasmid and blaIMP-4-qacG2-aacA4-catB3 array by Etest method
Enterobacter cloacae [22] = experiment: Antibacterial activity against Enterobacter cloacae El3518 transconjugant harboring IncL/M plasmid and blaIMP-4-qacG2-aacA4-catB3 array by Etest method
Klebsiella pneumoniae [23] = experiment: Antibacterial activity against Klebsiella pneumoniae Kp3799 transconjugant harboring IncL/M plasmid and blaIMP-4-qacG2-aacA4-catB3 array by Etest method
Escherichia coli [24] = experiment: Antibacterial activity against Escherichia coli isolate Ec211 harboring IncA/C plasmid and blaIMP-4-qacG2-aacA4-catB3 array by Etest method
Citrobacter koseri [25] = experiment: Antibacterial activity against Citrobacter koseri isolate Ck211 harboring IncA/C plasmid and blaIMP-4-qacG2-aacA4-catB3 array by Etest method
Klebsiella pneumoniae [26] = experiment: Antibacterial activity against Klebsiella pneumoniae Kp2730 transconjugant harboring IncL/M plasmid and blaIMP-4-qacG2-aacA4-catB3 and dfrA12-orfF-aadA2 arrays by Etest method
Acinetobacter baumannii = experiment: Antibacterial activity against Acinetobacter baumannii isolate AbN450 harboring […]-qacG2-aacA4-catB3 array by Etest method
Serratia marcescens [27] = experiment: Antibacterial activity against Serratia marcescens isolate Sm203 harboring IncA/C plasmid and blaIMP-4-qacG2-aacA4-catB3 array by Etest method
Klebsiella pneumoniae [28] = experiment: Antibacterial activity against Klebsiella pneumoniae isolate Kp3799 harboring IncL/M plasmid and blaIMP-4-qacG2-aacA4-catB3 array by Etest method
Citrobacter youngae = experiment: Antibacterial activity against Citrobacter youngae CyB38 transconjugant harboring blaIMP-4-qacG2-aacA4-catB3 array by Etest method
Klebsiella pneumoniae [29] = experiment: Antibacterial activity against Klebsiella pneumoniae isolate Kp38045 harboring IncL/M plasmid and blaIMP-4-qacG2-aacA4-catB3 array by Etest method
Citrobacter koseri [30] = experiment: Antibacterial activity against Citrobacter koseri Ck211 transconjugant harboring IncA/C plasmid and blaIMP-4-qacG2-aacA4-catB3 array by Etest method
Escherichia coli [31] = experiment: Antibacterial activity against Escherichia coli Ec9381 transconjugant harboring IncL/M plasmid and blaIMP-4-qacG2-aacA4-catB3 array by Etest method
Enterobacter cloacae [32] = experiment: Antibacterial activity against Enterobacter cloacae isolate El3280 harboring IncL/M plasmid and blaIMP-4-qacG2-aacA4-catB3 array by Etest method
Klebsiella oxytoca [33] = experiment: Antibacterial activity against Klebsiella oxytoca isolate Ko1156 harboring IncL/M plasmid and blaIMP-4-qacG2-aacA4-catB3 array by Etest method
Morganella morganii [34] = experiment: Antibacterial activity against Morganella morganii isolate Mm38009 harboring IncL/M plasmid and blaIMP-4-qacG2-aacA4-catB3 array by Etest method
Escherichia coli [35] = experiment: Antibacterial activity against Escherichia coli Ec158 transconjugant harboring IncA/C plasmid and blaIMP-4-qacG2-aacA4-catB3 array by Etest method
Citrobacter amalonaticus [36] = experiment: Antibacterial activity against Citrobacter amalonaticus Ca3927 transconjugant harboring IncL/M plasmid and blaIMP-4-qacG2-aacA4-catB3 array by Etest method
Enterobacter cloacae [37] = experiment: Antibacterial activity against Enterobacter cloacae isolate El216 harboring IncA/C plasmid and blaIMP-4-qacG2-aacA4-catB3 array by Etest method
Serratia marcescens [38] = experiment: Antibacterial activity against Serratia marcescens isolate Sm201 harboring IncA/C plasmid and blaIMP-4-qacG2-aacA4-catB3 array by Etest method
Escherichia coli [39] = experiment: Antibacterial activity against Escherichia coli isolate Ec221 harboring IncA/C plasmid and blaIMP-4-qacG2-aacA4-catB3 array by Etest method

In the case of GENTAMICIN, the MIC (Citrobacter amalonaticus [1]) is reported as over 8 µg/mL, the MIC (Klebsiella pneumoniae [2]) is reported as over 8 µg/mL and the MIC (Klebsiella pneumoniae [3]) is reported as under 2 µg/mL. It also gave an MIC (Acinetobacter) of over 8 µg/mL, an MIC (Morganella morganii [4]) of over 8 µg/mL and an MIC (Klebsiella pneumoniae [5]) of over 8 µg/mL. The MIC (Klebsiella oxytoca [6]) was over 8 µg/mL, the MIC (Serratia marcescens [7]) was 8 µg/mL and the MIC (Citrobacter amalonaticus [8]) was over 8 µg/mL. The MIC (Klebsiella oxytoca [9]) was under 2 µg/mL, the MIC (Morganella morganii [10]) was over 8 µg/mL and the MIC (Klebsiella pneumoniae [11]) was over 8 µg/mL. It also gave an MIC (Enterobacter cloacae [12]) of over 8 µg/mL, an MIC (Serratia marcescens [13]) of over 8 µg/mL and an MIC (Klebsiella pneumoniae [14]) of over 8 µg/mL. For the same sequence, the MIC (Klebsiella oxytoca [15]) was over 8 µg/mL, the MIC (Klebsiella pneumoniae [16]) was over 8 µg/mL and the MIC (Klebsiella oxytoca [17]) was 4 µg/mL. It also gave an MIC (Klebsiella pneumoniae [18]) of over 8 µg/mL, an MIC (Enterobacter cloacae [19]) of over 8 µg/mL and an MIC (Klebsiella pneumoniae [20]) of over 8 µg/mL. It also gave an MIC (Escherichia coli [21]) of over 8 µg/mL, an MIC (Enterobacter cloacae [22]) of over 8 µg/mL and an MIC (Klebsiella pneumoniae [23]) of over 8 µg/mL. For the same sequence, the MIC (Escherichia coli [24]) was over 8 µg/mL, the MIC (Citrobacter koseri [25]) was over 8 µg/mL and the MIC (Klebsiella pneumoniae [26]) was over 8 µg/mL. It also gave an MIC (Acinetobacter baumannii) of over 8 µg/mL, an MIC (Serratia marcescens [27]) of over 8 µg/mL and an MIC (Klebsiella pneumoniae [28]) of over 8 µg/mL. The MIC (Citrobacter youngae) was under 2 µg/mL, the MIC (Klebsiella pneumoniae [29]) was over 8 µg/mL and the MIC (Citrobacter koseri [30]) was over 8 µg/mL. For the same sequence, the MIC (Escherichia coli [31]) was over 8 µg/mL, the MIC (Enterobacter cloacae [32]) was over 8 µg/mL and the MIC (Klebsiella oxytoca [33]) was over 8 µg/mL. For the same sequence, the MIC (Morganella morganii [34]) was over 8 µg/mL, the MIC (Escherichia coli [35]) was over 8 µg/mL and the MIC (Citrobacter amalonaticus [36]) was over 8 µg/mL. It also gave an MIC (Enterobacter cloacae [37]) of over 8 µg/mL, an MIC (Serratia marcescens [38]) of over 8 µg/mL and an MIC (Escherichia coli [39]) of under 2 µg/mL.
